ChEMBL document CHEMBL4041474, “Design, synthesis and pharmacological evaluation of 4,5-diarylisoxazols bearing amino acid residues within the 3-amido motif as potent heat shock protein 90 (Hsp90) inhibitors” (Eur J Med Chem, 2017)
Calls of active or inactive are those of the source. No cut-off for these calls is given here.

Experiments:
[1] = target: Heat shock protein HSP 90-alpha (Homo sapiens, UniProt P07900); test: Inhibition of fluorescein isothiocyanate labeled geldanamycin binding to recombinant Hsp90alpha (unknown origin) after 1 hr by fluorescence polarization assay
NCI-H3122 [2] = test: Antiproliferative activity against human NCI-H3122 cells after 72 hrs by SRB assay; format: functional, cell-based; conditions: NCI-H3122, 72 h
A549 = test: Antiproliferative activity against human A549 cells after 72 hrs by SRB assay; format: functional, cell-based; conditions: A549, 72 h
NCI-H460 = test: Antiproliferative activity against human NCI-H460 cells after 72 hrs by SRB assay; format: functional, cell-based; conditions: NCI-H460, 72 h
HCT-116 = test: Antiproliferative activity against human HCT116 cells after 72 hrs by SRB assay; format: functional, cell-based; conditions: HCT-116, 72 h
BT-474 = test: Antiproliferative activity against human BT474 cells after 72 hrs by SRB assay; format: functional, cell-based; conditions: BT-474, 72 h
MDA-MB-231 = test: Antiproliferative activity against human MDA-MB-231 cells after 72 hrs by SRB assay; format: functional, cell-based; conditions: MDA-MB-231, 72 h
DU-145 = test: Antiproliferative activity against human DU145 cells after 72 hrs by SRB assay; format: functional, cell-based; conditions: DU-145, 72 h
NCI-N87 = test: Antiproliferative activity against human NCI-N87 cells after 72 hrs by SRB assay; format: functional, cell-based; conditions: NCI-N87, 72 h
U-87 MG = test: Antiproliferative activity against human U87MG cells after 72 hrs by SRB assay; format: functional, cell-based, U-87MG ATCC
[3] = target: T1, Heat shock protein HSP90 (Homo sapiens) (UniProt P07900+P08238); conditions: 100 nM
Description: Inhibition of Hsp90 in human NCI-H3122 cells assessed as degradation of EML4-ALK fusion protein at 100 nM after 24 hrs by Western blot analysis

[4] = target: T1, Heat shock protein HSP90 (Homo sapiens); conditions: 11.1 to 100 nM
Description: Inhibition of Hsp90 in human NCI-H3122 cells assessed as upregulation of Hsp70 at 11.1 to 100 nM after 24 hrs by Western blot analysis

[5] = target: T1, Heat shock protein HSP90 (Homo sapiens); conditions: 11.1 to 100 nM; remark: listed apart in the source
Description: Inhibition of Hsp90 in human NCI-H3122 cells assessed as decrease in phosphorylation of AKT at Ser473 at 11.1 to 100 nM after 24 hrs by Western blot analysis

[6] = target: T1, Heat shock protein HSP90 (Homo sapiens); conditions: 11.1 to 100 nM; remark: listed apart in the source
Description: Inhibition of Hsp90 in human NCI-H3122 cells assessed as decrease in phosphorylation of ERK1/2 at 11.1 to 100 nM after 24 hrs by Western blot analysis

NCI-H3122 [7] = test: Potency index, ratio of AUY922 IC50 to compound IC50 for human NCI-H3122 cells; format: functional

Row | Structure (SMILES) | IC50 [1] | IC50 (NCI-H3122 [2]) | also measured
1 | COC(=O)[C@@H](Cc1ccccc1)NC(=O)[C@H](NC(=O)c1noc(-c2cc(C(C)C)c(O)cc2O)c1-c1ccc(CN2CCOCC2)cc1)C(C)C | 397 nM | 79 nM | –
2 | COC(=O)[C@@H](CC1CCCCC1)NC(=O)c1noc(-c2cc(C(C)C)c(O)cc2O)c1-c1ccc(CN2CCOCC2)cc1 | 836 nM | > 10000 nM | –
3 | COC(=O)[C@@H](CO)NC(=O)c1noc(-c2cc(C(C)C)c(O)cc2O)c1-c1ccc(CN2CCOCC2)cc1 | 72 nM | 227 nM | –
4 | COC(=O)[C@H](CCCCNC(=O)OCc1ccccc1)NC(=O)c1noc(-c2cc(C(C)C)c(O)cc2O)c1-c1ccc(CN2CCOCC2)cc1 | 514 nM | 4470 nM | –
5 | CC(C)c1cc(-c2onc(C(=O)N[C@@H](C(=O)NCCN3CCOCC3)C(C)C)c2-c2ccc(CN3CCOCC3)cc2)c(O)cc1O | 206 nM | 139 nM | –
6 | CC(C)c1cc(-c2onc(C(=O)N[C@@H](C(=O)N3CC(F)(F)C3)C(C)C)c2-c2ccc(CN3CCOCC3)cc2)c(O)cc1O | 39 nM | 37 nM | –
7 | COC(=O)[C@@H](Cc1ccccc1)NC(=O)c1cnc(N2CCC(CNC(=O)c3noc(-c4cc(C(C)C)c(O)cc4O)c3-c3ccc(CN4CCOCC4)cc3)CC2)nc1 | 749 nM | 1130 nM | –
8 | COC(=O)[C@H](NC(=O)c1cnc(N2CCC(CNC(=O)c3noc(-c4cc(C(C)C)c(O)cc4O)c3-c3ccc(CN4CCOCC4)cc3)CC2)nc1)C(C)C | 407 nM | 278 nM | –
9 | COC(=O)[C@H](NC(=O)c1cnc(N2CCN(C(=O)c3noc(-c4cc(C(C)C)c(O)cc4O)c3-c3ccc(CN4CCOCC4)cc3)CC2)nc1)C(C)C | 473 nM | 135 nM | –
10 | CC(C)c1cc(-c2onc(C(=O)N[C@@H](C(=O)NC3(CO)CC3)C(C)C)c2-c2ccc(CN3CCOCC3)cc2)c(O)cc1O | 106 nM | 81 nM | –
11 | COC(=O)[C@@H](Cc1ccccc1)NC(=O)c1cnc(N2CCN(C(=O)c3noc(-c4cc(C(C)C)c(O)cc4O)c3-c3ccc(CN4CCOCC4)cc3)CC2)nc1 | > 1000 nM | 164 nM | –
12 | COC(=O)[C@H](NC(=O)c1noc(-c2cc(C(C)C)c(O)cc2O)c1-c1ccc(CN2CCOCC2)cc1)C(C)C | 79 nM | 28 nM | –
13 | COC(=O)[C@H](NC(=O)[C@H](NC(=O)c1noc(-c2cc(C(C)C)c(O)cc2O)c1-c1ccc(CN2CCOCC2)cc1)C(C)C)C(C)C | 206 nM | > 10000 nM | –
14 | CC(C)c1cc(-c2onc(C(=O)N[C@@H](C(=O)OC(C)(C)C)C(C)C)c2-c2ccc(CN3CCOCC3)cc2)c(O)cc1O | 112 nM | < 1 nM | –
15 | COC(=O)[C@@H](Cc1ccccc1)NC(=O)c1noc(-c2cc(C(C)C)c(O)cc2O)c1-c1ccc(CN2CCOCC2)cc1 | 260 nM | 77 nM | –
16 | COC(=O)[C@@H](Cc1c[nH]c2ccccc12)NC(=O)c1noc(-c2cc(C(C)C)c(O)cc2O)c1-c1ccc(CN2CCOCC2)cc1 | 368 nM | 149 nM | –

Row | Structure (SMILES) | IC50 [1] | IC50 (NCI-H3122 [2]) | also measured
17 | COC(=O)[C@H](NC(=O)[C@H](NC(=O)C(NC(=O)c1noc(-c2cc(C(C)C)c(O)cc2O)c1-c1ccc(CN2CCOCC2)cc1)C(C)C)C(C)C)C(C)C (single isomer, unassigned) | 259 nM | 34 nM | –
18 | COC(=O)[C@@H](Cc1ccccc1)NC(=O)CCCCCNC(=O)c1noc(-c2cc(C(C)C)c(O)cc2O)c1-c1ccc(CN2CCOCC2)cc1 | 307 nM | 90 nM | –
19 | COC(=O)[C@@H](Cc1ccccc1)NC(=O)COCCOCCNC(=O)c1noc(-c2cc(C(C)C)c(O)cc2O)c1-c1ccc(CN2CCOCC2)cc1 | > 1000 nM | 1530 nM | –
20 | COC(=O)[C@H](NC(=O)CCCCCNC(=O)c1noc(-c2cc(C(C)C)c(O)cc2O)c1-c1ccc(CN2CCOCC2)cc1)C(C)C | 98 nM | 65 nM | –
21 | CCNC(=O)c1noc(-c2cc(C(C)C)c(O)cc2O)c1-c1ccc(CN2CCOCC2)cc1 [LUMINESPIB] | – | 14 nM | –
22 | COC(=O)[C@H](NC(=O)[C@H](NC(=O)[C@H](NC(=O)[C@H](NC(=O)c1noc(-c2cc(C(C)C)c(O)cc2O)c1-c1ccc(CN2CCOCC2)cc1)C(C)C)C(C)C)C(C)C)C(C)C | 528 nM | 638 nM | –
23 | COC(=O)[C@@H](CC(C)C)NC(=O)[C@H](NC(=O)c1noc(-c2cc(C(C)C)c(O)cc2O)c1-c1ccc(CN2CCOCC2)cc1)C(C)C | 285 nM | > 10000 nM | –
24 | COC(=O)[C@@H](CC(C)C)NC(=O)c1noc(-c2cc(C(C)C)c(O)cc2O)c1-c1ccc(CN2CCOCC2)cc1 | 151 nM | 19 nM | –
25 | COC(=O)[C@H](NC(=O)COCCOCCOCCNC(=O)c1noc(-c2cc(C(C)C)c(O)cc2O)c1-c1ccc(CN2CCOCC2)cc1)C(C)C | 14 nM | 42 nM | IC50 (A549): 351 nM; IC50 (NCI-H460): 247 nM; IC50 (HCT-116): 116 nM; IC50 (BT-474): 57 nM; IC50 (MDA-MB-231): 130 nM; IC50 (DU-145): 239 nM; IC50 (NCI-N87): 564 nM; IC50 (U-87 MG): 109 nM; inhibition [3]: Active; inhibition [4]: Active; inhibition [5]: Active; inhibition [6]: Active
26 | CC(C)c1cc(-c2onc(C(=O)N[C@@H](C(=O)N3CCN(C)CC3)C(C)C)c2-c2ccc(CN3CCOCC3)cc2)c(O)cc1O | 429 nM | 149 nM | –
27 | COC(=O)[C@@H](Cc1ccccc1)NC(=O)COCCOCCOCCNC(=O)c1noc(-c2cc(C(C)C)c(O)cc2O)c1-c1ccc(CN2CCOCC2)cc1 | 122 nM | 40 nM | –
28 | CNC(=O)[C@H](NC(=O)c1noc(-c2cc(C(C)C)c(O)cc2O)c1-c1ccc(CN2CCOCC2)cc1)C(C)C | 21 nM | 39 nM | –
29 | CCOC(=O)[C@H](NC(=O)c1noc(-c2cc(C(C)C)c(O)cc2O)c1-c1ccc(CN2CCOCC2)cc1)C(C)C | 189 nM | 2 nM | Ratio IC50 (NCI-H3122 [7]): 10
30 | COC(=O)[C@H](NC(=O)COCCOCCNC(=O)c1noc(-c2cc(C(C)C)c(O)cc2O)c1-c1ccc(CN2CCOCC2)cc1)C(C)C | 154 nM | 90 nM | –
31 | CCNC(=O)[C@H](NC(=O)c1noc(-c2cc(C(C)C)c(O)cc2O)c1-c1ccc(CN2CCOCC2)cc1)C(C)C | 28 nM | 34 nM | –
